Values joined by “and” are separate entries in the source; they are usually repeats but may differ in a detail not shown here. Identical values can stand only once. “Also recorded” adds a separate entry of the source.
Experiments:
[1] = tested on: forebrain-committed neural progenitor cells; assay: HD-DoE stage 5, 8-factor experiment (GDNF, BDNF, NT-3 ...): Somatostatin expression; type: cell-based, human; conditions: for impact on expression of Somatostatin: FIG. 24 dynamic profile, in words; for factor contribution, expression of Somatostatin: positive, 8-factor experiment of FIG. 23
Protocol: To investigate the effects of other factors on differentiation of forebrain-committed neural progenitor cells to Somatostatin interneuron cells, an additional HD-DoE experiment was performed for 3 days on cells that were treated with stage 1 to stage 4 medium for a total of 12 days prior to the new experiment. This experiment, the results of which are shown in FIG. 23, included eight effectors, GDNF, BDNF, NT-3, ß-NGF, Linoleic acid, 5-Cholesten-3β, LIF and TGF-β3. In this model, we focused on maximum expression of Somatostatin gene expressed in Somatostatin (+) interneurons (Urban-Ciecko and Barth (2016) Nature Reviews Neurosci. 17:401-409). When the model was optimized for maximum expression of Somatostatin, BDNF, NT-3, beta-NGF and Linoleic acid had the highest factor contributions, 25.7, 2, 19.9, 23.5, respectively.
Therefore, the latter were excluded in the recipe.

[2] = tested on: stage 2 neural stem cells; assay: HD-DoE stage 3 experiment: ASCL1, LHX6, DLX1 expression; type: cell-based, human; conditions: for factor contribution, expression of ASCL1: positive, model optimized for maximum ASCL1 at 1700
Protocol: To further guide the cells to medial ganglionic eminence progenitor fate, an additional HD-DoE experiment was performed for 3 days on cells that were treated with stage 1 and stage 2 media for total of 6 days prior to start of the experiment. This experiment included 13 effectors, LDN193189, A8301, GNF5837, AZD3147, GSI-XX, Takinib, PD0325901, PD173074, BLU9931, IGF-1, MHY1485, Purmorphamine and Prostratin. In this model, we focused on maximum expression of genes expressed in neuronal progenitor cells in medial ganglionic eminence (MGE) region including ASCL1, LHX6 and DLX1 (Silberberg et al. (2016) Neuron 92:59-74). When the model was optimized for maximum expression of ASCL1 at 1700, A8301, GSI-XX, Purmorphamine and Takinib, which is an inhibitor of TAK1 pathway, had the highest factor contributions, 18.1, 14.1, 12.7 and 10.1 respectively. […] MHY 1485 also had positive contribution however the factor was below 2 (FIG. 9).
Therefore, six effectors including A8301, GSI-XX, Takinib, GNF5837, IGF-1 and Purmorphamine were finalized as ingredients of stage 3 differentiation media. A representative recipe for Stage 3 differentiation is summarized below in Table 3.

[3] = tested on: stage 2 neural stem cells; assay: Factor criticality analysis, stage 3 recipe; type: cell-based, human; conditions: other five stage 3 factors present; for expression level of DLX1 when the factor is removed: 220 with all six factors; for expression level of LHX6 when the factor is removed: 240 with all six factors; for expression level of ASCL1 when the factor is removed: 1650 with all six factors
Protocol: (§1) To assess the impact of the elimination of each validated factor, dynamic profile analysis was used and compared the expression level of genes of interest in absence of each finalized factor while others are present.
In the stage 3 recipe, each of the six finalized factors were removed while the other five factors remained present and the expression levels of ASCL1, DLX1 and LHX6 were assessed compared to the presence of all six factors. […] As expected, in the absence of IGF-1, the value of DLX1 increases to 410, however, ASCL1 and LHX6 decreased to 1390 and 220, respectively.

[4] = tested on: human pluripotent stem cells; assay: HD-DoE stage 1, additional experiment: FEZF2 expression; type: cell-based; conditions: dynamic profile, in words
Protocol: To identify the recipe for stage 1 of differentiation, 96 different combinations of effectors generated using Design-of-Experiments compression through D-optimality were robotically prepared. The effector combinations were prepared in a basal media and were subsequently added to the cells, which were then allowed to differentiate. Three days later RNA extraction was performed, and gene expression was obtained using quantitative PCR analysis. The data were normalized and modeled using partial least squares regression analysis to the effector design, resulting in the generation of gene-specific models, which after model tuning for maximal Q2 predictive power, provided explanation of the effectors ability to control the expression of individual genes, combinatorically, and individually. Solutions within the tested space could then be explored to address desirability. To further enhance the conditions for forebrain differentiation from pluripotency, an additional HD-DoE experiment was performed. Additional gene regulatory models were obtained that were used for preparation of the differentiation protocol. The factors in this experiment included LDN193189, PD173074, BLU9931, Purmorphamine, SC79, MK2206, ZM336372, PD0325901, CHIR99021, XAV939, UCLA-GP130, Tofacitinib and GO6983. […] Dynamic profile analysis was also used to assess the interaction between the effectors.

[5] = tested on: human pluripotent stem cells; assay: Factor criticality analysis, stage 1 recipe (dynamic profile analysis); type: cell-based; conditions: 3500 with all factors; FIG. 12
Source text: as §1, with “present. […] When Purmorphamine was removed, levels of FEZF2 and SIX3 were decreased to 1000 and below 3000, while levels of OTX2 increased to 6500.” for “present.”

[6] = tested on: medial ganglionic eminence (MGE)-derived neural progenitors; assay: HD-DoE stage 4, 12-factor experiment: SOX6 expression; type: cell-based, human; conditions: for impact on expression of SOX6: dynamic profile, in words; for factor contribution, expression of SOX6: significant negative effect, model optimized for maximal SOX6
Source text: These effectors are small chemical compounds or proteins. They are commonly used during the differentiation of stem cells to specific cell linage. The choice of the effectors was based on the current literature on forebrain neural induction and differentiation of neural progenitor cells to mature neurons.
To evaluate the effectors on SST differentiation, experiments with 8 or 12 factors were designed to assess the responses of cells to 48 or more combinations of effectors in a range of concentrations. To analyze the models, we focused on expression of genes involved in development and patterning of the forebrain interneurons maturation including LHX6 (Liodis et al. (2007) J. Neurosci. 27:3078-3089; Yuan et al. (2018) Elife 7: e37382), SOX6 (Azim et al. (2009) Nature Neurosci. 12:1238-1247; Batista-Brito et al. (2009) Neuron 63:466-481), DLX5 (de Lombares et al. (2019) Aging (Albany NY) 11:6638; Wang et al. (2010) J. Neurosci. 30:5334-5345) and ASCL1 (Barretto et al. (2020) J. Neurosci. Meth. 334:108548; Shi et al. (2016) J. Biol. Chem. 291:13560-13570). At later stages we focused on interneuron maturation genes including somatostatin and absence of Parvalbumin (Horn and Nicoll (2018) Proc. Natl. Acad. Sci. 115:589-594). The impacts of each effector on gene expression level are defined by a parameter called factor contribution that is calculated for each effector during the modeling.
To identify the recipe for differentiation at stage 4, at least 48 different combinations of effectors were robotically prepared by the Design-of-Experiments compression through D-optimality. The effector combinations were prepared in a basal media and were subsequently added to the cells, which were then allowed to differentiate. Three days later, RNA extraction was performed, and gene expression levels were examined using quantitative PCR analysis. The data was normalized and modeled using partial least squares regression analysis to the effector design, resulting in the generation of gene-specific models, which after model tuning for maximal predictive power, provided explanation of the effectors ability to control the expression of individual genes, combinatorically, and individually. Solutions within the tested space could then be explored to address desirability.
IGF-1 activates the IGF-1 pathway, promotes neuron axonal growth, and establishes the synapse of interneurons. GDNF is the […] and can activate the GDNF pathway. MK2206 is an AKT inhibitor and can inhibit cell proliferation and promote neuronal maturation. PD173074 and BLU-554 are FGFR inhibitors. The FGF pathway is required for the maintenance of neural progenitor cells. Inhibition of the FGFR pathway promotes neural maturation. GSI-XX is a notch pathway inhibitor. Notch pathway inhibits neural progenitor cell differentiation. Inhibition of the Notch pathway promotes neural differentiation.
To find the set of factors that have the potential to optimize SOX6 in this experiment, a new assessment was done through dynamic profile analysis with focus on maximal expression of SOX6.

[7] = tested on: forebrain-committed neural progenitor cells; assay: HD-DoE stage 5, 8-factor experiment (JQ1, Indolactam-V ...): Somatostatin expression; type: cell-based, human
Protocol: To further guide the differentiation of forebrain-committed neural progenitor cells to somatostatin interneuron cells at stage 5, HD-DoE experiments were performed for 3 days after termination of stage 4 treatment. At this time, we focused on maximum expression of SST that was expressed in Somatostatin (+) interneurons and minimum expression of Parvalbumin that is another type of interneurons. This 8-factor experiment included JQ1, (−)-Indolactam-V, Oleic acid, BDNF, IGF-1, 2-phospho-L-Ascorbic acid, Albumax, MK2206. When the model was maximized for expression of Somatostatin, six effectors were identified that could increase its expression levels, including (−)-Indolactam-V, Oleic acid, BDNF, 2-phospho-L-ascorbic acid, Albumax, and MK2206, as shown in FIG. 21. Using dynamic profile analysis, the results of which are shown in FIG. 22, the model was modified to achieve the maximum expression level of Somatostatin and therefore (−)-Indolactam-V, BDNF, and 2-phospho-L-ascorbic acid were included while JQ-1, Oleic acid, Albumax and MK2206 were excluded. Considering the model at different optimization settings for maximum differentiation of cells toward ventral forebrain, the recipe for stage 5 of differentiation included (−)-Indolactam-V, BDNF, IGF-1, and 2-phospho-L-ascorbic acid from this HD-Doe experiment.

5-Cholesten-3β
impact on expression of Somatostatin [1]: negative impact

Cc1cccc(-c2nn(C(=S)Nc3ccccc3)cc2-c2ccnc3ccccc23)n1 [A8301]
impact on expression of ASCL1 ([2]; dynamic profile, in words): positive trends; also recorded: Positive impact
impact on expression of DLX1 ([2]; dynamic profile, in words): did not have a significant negative impact
impact on expression of LHX6 ([2]; dynamic profile, in words): positive trends; also recorded: Positive impact
factor contribution, expression of ASCL1 [2]: 18.1 and 18
expression level of DLX1 when the factor is removed [3]: did not change significantly
expression level of LHX6 when the factor is removed [3]: did not change significantly
expression level of ASCL1 when the factor is removed [3]: 1000

Cc1ccc(NC(=O)Nc2cc(C(F)(F)F)ccc2F)cc1Nc1ccc2c(c1)NC(=O)/C2=C\c1ccc[nH]1 [GNF5837]
factor contribution, expression of ASCL1 [2]: 9.4
expression level of DLX1 when the factor is removed [3]: did not have a significant impact
expression level of LHX6 when the factor is removed [3]: 160
expression level of ASCL1 when the factor is removed [3]: 1300

COc1ccc2c(c1)c(C1=C(c3c[nH]c4ccccc34)C(=O)NC1=O)cn2CCCN(C)C [GO6983]
impact on expression of FEZF2 [4]: positive impact
expression level of FEZF2 when the factor is removed [5]: 3200

CCCCC/C=C\C/C=C\CCCCCCCC(=O)O [Linoleic acid]
impact on expression of Somatostatin [1]: positive effect; also recorded: positive impact
factor contribution, expression of Somatostatin [1]: 23.5

O=[N+]([O-])c1ccc(Nc2nc(N3CCOCC3)nc(N3CCOCC3)n2)cc1 [MHY 1485]
factor contribution, expression of ASCL1 [2]: below 2
impact on expression of SOX6 [6]: negative effect
factor contribution, expression of SOX6 [6]: 9.5

CCCCCCCC/C=C\CCCCCCCC(=O)O [Oleic acid]
impact on expression of Somatostatin ([7]; FIG. 21/22, in words): increase; also recorded: positive impact
factor contribution, expression of Somatostatin ([7]; positive, 8-factor experiment of FIG. 21): 7.4

NC(=O)c1ccc(-c2nc(-c3ccc4c(c3)OCO4)c(-c3ccccn3)[nH]2)cc1 [SB431542]
impact on expression of SOX6 [6]: negative effect
factor contribution, expression of SOX6 [6]: 6.2

CCCn1/c(=N/C(=O)c2cccc(C(N)=O)c2)[nH]c2ccccc21 [Takinib]
factor contribution, expression of ASCL1 [2]: 10.1
expression level of DLX1 when the factor is removed [3]: 180
expression level of LHX6 when the factor is removed [3]: 170

CCCC(CCC)C(=O)O [Valproic acid]
impact on expression of SOX6 [6]: negative effect
factor contribution, expression of SOX6 [6]: 4.7

LIF: effector tested in the stage 5 HD-DoE experiment
impact on expression of Somatostatin [1]: negative impact

Substance P: member of the tachykinin neuropeptide family
impact on expression of SOX6 [6]: negative effect
factor contribution, expression of SOX6 [6]: 5.1

beta-NGF: effector tested in the stage 5 HD-DoE experiment
impact on expression of Somatostatin [1]: positive impact
impact on expression of Somatostatin ([1]; listed as β-NGF): positive effect
factor contribution, expression of Somatostatin [1]: 19.9

B1: NT-3: effector tested in the stage 5 HD-DoE experiment (protein, UniProt P20783 139-257, looked up)
Neurotrophin-3: YAEHKSHRGEYSVCDSESLWVTDKSSAIDIRGHQVTVLGEIKTGNSPVKQYFYETRCKEARPVKNGCRGIDDKHWNSQCKTSQTYVRALTSENNKLVGWRWIRIDTSCVCALSRKIGRT
impact on expression of Somatostatin [1]: positive effect; also recorded: positive impact
factor contribution, expression of Somatostatin [1]: 2

B2: TGF-β3: effector tested in the stage 5 HD-DoE experiment (protein, UniProt P10600 301-412, looked up)
Transforming growth factor …: ALDTNYCFRNLEENCCVRPLYIDFRQDLGWKWVHEPKGYYANFCSGPCPYLRSADTTHSTVLGLYNTLNPEASASPCCVPQDLEPLTILYYVGRTPKVEQLSNMVVKSCKCS
modifications: Transforming growth factor beta-3
impact on expression of Somatostatin [1]: negative impact

— US20250092360A1, “METHODS AND COMPOSITIONS FOR GENERATING SOMATOSTATIN+ INTERNEURONS FROM HUMAN FOREBRAIN NEURAL PROGENITOR CELLS” (Trailhead Biosystems Inc., priority 2023, published 2025)
